# Source: US20150011484A1, “PRODRUGS OF D-GAMMA-GLUTAMYL-D-TRYPTOPHAN AND D-GAMMA-GLUTAMYL-L-TRYPTOPHAN” (APOTEX TECHNOLOGIES, INC., priority 2011, published 2015)
# What was measured:
# [1] = Distribution coefficient determination, D7.4 (1-octanol / MOPS buffer pH 7.4); format: physicochemical
# Procedure: MOPS buffer (50 mM, pH=7.4) and 1-octanol were used as the aqueous phase and the organic phase, respectively. The MOPS buffer and 1-octanol were mixed, and pre-saturated with each other prior to use.
# In a typical experiment, an aqueous solution of Apo848 hydrochloride salt (H-D-Glu(D-Trp-O-isoamyl)-O-isoamy HCl) was prepared by weighing out 2 mg of the compound into a 5-mL volumetric flask, followed by addition of MOPS buffer (50 mM, pH=7.4) to volume. The resulting mixture was sonicated and vortexed to ensure complete dissolution. The resulting solution was analyzed by HPLC (Column: XTerra MS C18, […], 4.6×250 mm; Mobile phase: A=4 mM Tris, 2 mM EDTA, pH 7.4 aqueous, B=acetonitrile; Gradient method: time in minutes—B in %:0-5, 15-55, 25-55, 25.05-5, 30-5; Flow rate: 1 mL/min; Injection volume=2 μL; detector wavelength: 282 nm) to obtain the peak height (Haqu^l).
# One mL of this aqueous solution was pipetted out into another 10-mL test-tube and mixed with 1 mL of 1-octanol. The mixture was vortexed for 1 hour, then centrifuged at 4000 rpm for 15 minutes. The two phases were separated. Both the aqueous phase and the organic phase were analyzed by HPLC to obtain the peak heights, Haqu^F and Horg^F. The distribution coefficient, D7.4, was calculated using one or both the following equations: D7.4=(Haqu^l−Haqu^F)/Haqu^F, or D7.4=Horg^F/Haqu^F.
# human hepatocytes = test: Biotransformation studies in human cryopreserved hepatocytes; format: in vitro ADME; settings: for Bioconversion to Apo805 in human hepatocytes: in 3 h, 100 μM, cryopreserved human hepatocytes
# Procedure: LiverPool® cryopreserved human hepatocytes (pooled from 10 male donors) was obtained from Celsis In Vitro Technologies. The hepatocytes were stored in liquid nitrogen until used. Just before the assay, the hepatocytes were quickly thawed at 37° C. and centrifuged at 100×g for 10 min. The media was removed and cells were re-suspended in PBS at a density of 4×10^6 cells/mL.
# The compound of Formula I (100 μM) was incubated with 0.1×10^6 hepatocytes in 50 μL volume. […] The “time 0” sample was generated by adding TCA before the test compound. After brief vortexing and 10-min incubation on ice, samples were centrifuged (16,000×g, 10 min) and the supernatants were analyzed by HPLC with UV detection.
# HPLC analysis of pro-drugs in SGF, SIF, plasma and hepatocytes samples: HPLC analysis was done using an Agilent 1100 series HPLC system consisting of a programmable multi-channel pump, auto-injector, vacuum degasser and HP detector controlled by Agilent HPLC218 Chem Station Rev.A.09.03 software for data acquisition and analysis. A gradient method was used for the determination of all pro-drugs and their hydrolysis products including Apo805 on an Agilent Eclipse XDB, C18 column (part #963967-902, 150×4.6 mm, 3.5 μm) with the following chromatographic conditions: • Temperature: Ambient • Mobile phase: A=Aqueous phase: 10 mM Tris-HCl, 2 mM EDTA, pH 7.4 • B=Organic phase: Acetonitrile • Gradient method: Time: 0 min 5% B, 25 min 50% B, 35 min 80% B, 45 min 5% B, 50 min 5% B. • Mobile phase flow rate: 1.0 mL/min • Injection volume: 50 μL • Data acquisition time: 30 min • Detection wavelength: 280 nm; 4 nm bandwidth, ref. 360 nm, 4 nm bandwidth
# The chromatograms at λ=280 nm were analyzed. Peak area (mAU*s) was used for quantitation of pro-drugs, intermediates and H-D-Glu(D-Trp-OH)—OH (Apo805).
# [2] = Pharmacokinetic studies in rats (oral bioavailability); format: in vivo, male Sprague-Dawley rats
# Procedure: Groups of five male Sprague-Dawley rats weighing 250 to 300 g were utilized per dosing group. One day prior to dosing, venous and arterial catheters (made of 20 cm long polyurethane coiled tubing, and filled with 100 units/mL heparinized saline) were implanted into the jugular vein and carotid artery of each rat. Rats were fasted overnight prior to oral dosing and fed approximately 2 hours post-dosing. All dosing and blood sampling was performed on fully conscious rats. Tested compounds were administered either by oral gavage as solutions in water, or by intravenous injection (Apo805K1 only) as solution in 0.9% sodium chloride, final pH 7.0, at doses equivalent to 5 mg/kg (per Apo805 content). Blood (0.3 mL) was sampled from each animal from the carotid artery for up to 30 hours post-dosing, each sampling followed by an equivalent naive-blood replacement. The blood sample was immediately centrifuged (4300×g for 5 minutes at 4° C.), and frozen at −80° C. until LC/MS/MS analysis.
# Metanol (200 μL) was added to plasma samples (50 μL) to precipitate plasma proteins. After brief vortexing and centrifugation, the supernatant (200 uL) was removed and dried at 40° C. under a stream if nitrogen. The sample was reconstituted in water (300 μL) and 25 μL was injected for analysis.
# A Sciex API 365 LC/MS/MS spectrophotometer equipped with Ionics EP10+ and HSID, was used. A chiral column (Supelco-Astec CHIROBIOTIC™ TAG), 100×2.1 mm, 5 μm was used at ambient temperature. The mobile phase consisted of 0.1% formic acid in water (A) and 0.1% formic acid in acetonitrile (B) in a ratio of 88:12(A:B; v/v) and the flow rate was 0.6 mL/min. Positive ion electrospray ionization (ESI+) in MRM mode was used for analysis. Samples were analysed for the concentration of Apo805.
# Absolute oral bioavailability of pro-drugs Apo848, a compound of Formula IA wherein G=T=isoamyl) was compared to that of Apo805K1 (potassium salt of H-D-Glu(D-Trp-OH)—OH) in male Sprague-Dawley rats. Adult animals, five per group, were dosed orally with 5 mg/kg Apo805K1, Apo848, or Apo838 and intravenously with 5 mg/kg Apo805K1.
# Non-compartmental analysis was performed using WinNonlin 5.2 software, on individual animal data. Bioavailability was calculated as a ratio of AUCINF—D after oral dosing of test compound to AUCINF—D after IV dosing of Apo805K1.
# [3] = Conversion of prodrug to Apo805 in rat blood; format: in vitro ADME
# [4] = Caco-2 cell permeability evaluation; format: in vitro ADME; settings: human; caco-2, 50 μM, HBSS pH 7.4, 37° C.; read-out: apparent permeability (Papp)
# Procedure: Human intestinal absorbtion potential of a compound of Formula I was estimated in caco-2 cells permeability assay.
# Caco-2 cells obtained originally from ATCC were seeded onto 0.9-cm^2 PET filter (Becton Dickinson) at a density of 90000 cells/insert. Culture conditions were maintained for 21-28 days in 20% fetal bovine serum containing eagle's minimum essential medium enriched with non-essential amino acids. Integrity of the cell monolayers was evaluated via measurement of Lucifer Yellow paracellular apparent permeability coefficient (Papp).
# Prior to the addition of a test compound, growth medium was removed and monolayer was rinsed twice with Hank's balanced salt solution (HBSS) at 37° C. The filter inserts containing the cell monolayers were transferred to a separate 12-well cell culture plate containing HBSS or solution of the test compound in the bottom chamber. […] For every experiment, the test compound solution was added to the top (apical-to-basolateral transport, A>B) or bottom (basolateral-to-apical transport, B>A) chamber and its appearance in the opposite chamber over time was monitored. […] Samples were analyzed by LC-MS/MS. In case of prodrugs which undergo partial hydrolysis during the experiment, the samples were analyzed for the concentration of the prodrug and all hydrolysis products. […]
structure (smiles),measurement,setting,value
"COC(=O)[C@@H](Cc1c[nH]c2ccccc12)NC(=O)CC[C@@H](N)C(=O)O [H-D-Glu(D-Trp-OMe)-OH, reference compound]",Log D7.4,"[1]; pH 7.4, 1-octanol/MOPS buffer",−0.89
"COC(=O)[C@H](N)CCC(=O)N[C@H](Cc1c[nH]c2ccccc12)C(=O)OC [Apo840, H-D-Glu(D-Trp-O—Me)—O—Me, reference compound]",Bioconversion to Apo805 in human hepatocytes,human hepatocytes,30% in 3 h
same,Log D7.4,"[1]; pH 7.4, 1-octanol/MOPS buffer",0.57
"CC(C)CCOC(=O)[C@H](N)CCC(=O)N[C@H](Cc1c[nH]c2ccccc12)C(=O)OCCC(C)C.Cl [Apo848, 3-methylbutyl (2R)-2-amino-5-{[(2R)-3-(1H-indol-3-yl)-1-(3-methylbutoxy)-1-oxopropan-2-yl]amino}-5-oxopentanoate hydrochloride]",Absolute oral bioavailability (AUC oral / AUC intravenous Apo805K1; Apo805 measured in plasma),"[2]; male, Sprague-Dawley, rat, in vivo, 5 mg/kg",48%
same,oral bioavailability compared with Apo805,"[2]; rat, in vivo, po",enhanced
same,oral exposure compared with H-D-Glu(D-Trp-OH)—OH,"[2]; rat, in vivo, po",improved
same,conversion to Apo805 in rat blood,[3],instantaneously converted
same,improvement of the log D value of H-D-Glu(D-Trp-OH)—OH,[1]; diisoamyl ester versus parent drug,more than 10^5 fold
same,Log D7.4,"[1]; pH 7.4, 1-octanol/MOPS buffer",2.1
same,distribution coefficient D7.4,"[1]; pH 7.4, 1-octanol/MOPS buffer",127
same,logD,"[1]; pH 7.4, 1-octanol/MOPS buffer, read-out: Log D7.4",2.1
same,"Papp at 120 min, 50 μM",[4],2.87 ×10⁻⁶ cm/s
"COC(=O)[C@@H](Cc1c[nH]c2ccccc12)NC(=O)CC[C@@H](N)C(=O)OCc1ccccc1 [Apo804, H-D-Glu(D-Trp-OMe)-O—CH2Ph]",Bioconversion to Apo805 in human hepatocytes,human hepatocytes,30%
same,Apo805 formed in human cryopreserved hepatocyte,human hepatocytes; over a period of 4 hours,31%
same,log D7.4 compared with Apo805,[1]; more lipophilic than Apo805,higher
"N[C@H](CCC(=O)N[C@H](Cc1c[nH]c2ccccc12)C(=O)O)C(=O)O [Apo805, D-gamma-glutamyl-D-tryptophan]",Log D7.4,"[1]; pH 7.4, 1-octanol/MOPS buffer",−3.22
"N[C@H](CCC(=O)N[C@H](Cc1c[nH]c2ccccc12)C(=O)[O-])C(=O)[O-].[H+].[K+] [Apo805K1, potassium salt of H-D-Glu(D-Trp-OH)—OH, reference compound]",Absolute oral bioavailability (AUC oral / AUC intravenous Apo805K1; Apo805 measured in plasma),"[2]; rats, oral 5 mg/kg",12%
